Results taken from patent US20240408077A1, “ATM KINASE INHIBITORS FOR USE IN THE TREATMENT OF NEUROLOGICAL CONDITIONS” (The University of Birmingham, priority 2021, published 2024).
Read-outs that look alike come from different tables or passages of the source.

How the values were obtained:
pATM (pSer 1981) = biological target: T1, pATM (pSer 1981) (Mus musculus, UniProt Q62388); assay: pATM levels in DRG after DC crush injury, western blot and densitometry; format: in vivo, mice; conditions: for pATM (pSer 1981) levels: oral 20 mg/kg once daily, DRG at 4 weeks after DC injury; for pATM inhibition in DRGN from SCI treated animals: oral, doses up to 100 mg/kg
T1 construct: L4/L5 DRG pairs were dissected out and snap frozen in liquid nitrogen; from tissue; host or cells: mouse L4/L5 dorsal root ganglia, 4 weeks after DC crush injury
Method: (§1) Mice were subcutaneously injected with Buprenorphine and anaesthetized using 5% isoflurane and 1.8 l/min O2. After a partial laminectomy at T8, DC were crushed bilaterally using calibrated watchmaker's forceps as described by us previously (12). Animals were dosed immediately after injury and allowed to recover in their home cage. Drugs were given every 24 hours for the duration of each experiment.
For western blot, animals were killed at 4 weeks and tissues harvested as described below. For immunohistochemistry and behavioural analysis, animals were treated up to 6 weeks after DC injury.
Methods for tissue harvesting have been described by us previously (7, 12). Briefly, for western blot analysis: animals were killed by rising concentrations of CO2 and L4/L5 DRG pairs were dissected out and snap frozen in liquid nitrogen and stored at −80° C. until required (7). For immunohistochemistry: animals were killed in rising concentrations of CO2 and intracardially perfused with 4% paraformaldehyde (7, 12). The SCI site+5 mm either side of the lesion center was dissected out and postfixed in 4% formaldehyde for 2 hr, followed by cryoprotection in a graded series of sucrose and embedded in optimal temperature cutting medium (#12678646, ThermoFisher). Sections were cut at 15 μm-thick stored at −80° C. until required.
Total protein was extracted from DRGN cultures and fresh DRG tissues as described by us previously (7, 12). Briefly, cultures/DRG tissues were washed in PBS and total protein extracted in ice-cold lysis buffer containing 20 mM HEPES, 1 mM EDTA, 150 mM NaCl, 1% NP-40 and 1 mM DTT and supplemented with protease (#P8340) and phosphatase inhibitor cocktails (#P5726) (all from Sigma). After a protein assay using the Bradford Assay Kit (#5000001; BioRad, Watford, UK), 15 μg of total protein was separated on 12% Tris-glycine SDS-PAGE gels. Proteins were then transferred onto PVDF membranes (#1EVH00005, Merck, Gillingham, UK), blocked in non-fat milk and incubated with rabbit anti-pATM (ser1981) antibody (#13050, 1:200 dilution, Cell Signalling Technology, London, UK) overnight at 4° C. Membranes were then washed in Tris buffered saline (TBS) and incubated with appropriate mouse/rabbit HRP-labelled secondary antibody (#GENA934; 1:1000 dilution, GE Healthcare, Buckinghamshire, UK) and bands detected using an enhanced chemiluminescence kit (#RPN2108, GE Healthcare). Rabbit anti-β-actin antibody (#ZRB1312, 1:1000; Sigma) was used as a loading control for western blots.
For densitometry, western blots were scanned into Adobe Photoshop (Adobe Systems, San Jose, CA, USA) keeping all scanning parameters the same between each blot and densitometrically analysed using the built-in gel plotting macros in ImageJ (ww.nihimage.nih.gov), as previously described (7).

DC axons = format: in vivo, mice; conditions: oral 20 mg/kg once daily; for DC axon regeneration through the lesion site: 6 weeks after injury
[1] = test system: kinases within the same family; conditions: cited from earlier work
ATM [2] = biological target: T2, ATM (Homo sapiens, UniProt Q13315); conditions: cited from earlier work
brain gliomas = conditions: in combination with daily ionizing radiation therapy; cited from earlier work
[3] = after oral administration; cited from earlier work
[4] = biological target: T3, phosphorylated ATM (pATM) (Rattus norvegicus, UniProt D4ACL8); assay: pATM levels in DRGN cultures, western blot and densitometry; format: cell-based
T3 construct: Total protein was extracted from DRGN cultures and fresh DRG tissues; endogenous in cells; host or cells: primary adult rat dorsal root ganglion neurons
T3 sequence (D4ACL8 1-3064): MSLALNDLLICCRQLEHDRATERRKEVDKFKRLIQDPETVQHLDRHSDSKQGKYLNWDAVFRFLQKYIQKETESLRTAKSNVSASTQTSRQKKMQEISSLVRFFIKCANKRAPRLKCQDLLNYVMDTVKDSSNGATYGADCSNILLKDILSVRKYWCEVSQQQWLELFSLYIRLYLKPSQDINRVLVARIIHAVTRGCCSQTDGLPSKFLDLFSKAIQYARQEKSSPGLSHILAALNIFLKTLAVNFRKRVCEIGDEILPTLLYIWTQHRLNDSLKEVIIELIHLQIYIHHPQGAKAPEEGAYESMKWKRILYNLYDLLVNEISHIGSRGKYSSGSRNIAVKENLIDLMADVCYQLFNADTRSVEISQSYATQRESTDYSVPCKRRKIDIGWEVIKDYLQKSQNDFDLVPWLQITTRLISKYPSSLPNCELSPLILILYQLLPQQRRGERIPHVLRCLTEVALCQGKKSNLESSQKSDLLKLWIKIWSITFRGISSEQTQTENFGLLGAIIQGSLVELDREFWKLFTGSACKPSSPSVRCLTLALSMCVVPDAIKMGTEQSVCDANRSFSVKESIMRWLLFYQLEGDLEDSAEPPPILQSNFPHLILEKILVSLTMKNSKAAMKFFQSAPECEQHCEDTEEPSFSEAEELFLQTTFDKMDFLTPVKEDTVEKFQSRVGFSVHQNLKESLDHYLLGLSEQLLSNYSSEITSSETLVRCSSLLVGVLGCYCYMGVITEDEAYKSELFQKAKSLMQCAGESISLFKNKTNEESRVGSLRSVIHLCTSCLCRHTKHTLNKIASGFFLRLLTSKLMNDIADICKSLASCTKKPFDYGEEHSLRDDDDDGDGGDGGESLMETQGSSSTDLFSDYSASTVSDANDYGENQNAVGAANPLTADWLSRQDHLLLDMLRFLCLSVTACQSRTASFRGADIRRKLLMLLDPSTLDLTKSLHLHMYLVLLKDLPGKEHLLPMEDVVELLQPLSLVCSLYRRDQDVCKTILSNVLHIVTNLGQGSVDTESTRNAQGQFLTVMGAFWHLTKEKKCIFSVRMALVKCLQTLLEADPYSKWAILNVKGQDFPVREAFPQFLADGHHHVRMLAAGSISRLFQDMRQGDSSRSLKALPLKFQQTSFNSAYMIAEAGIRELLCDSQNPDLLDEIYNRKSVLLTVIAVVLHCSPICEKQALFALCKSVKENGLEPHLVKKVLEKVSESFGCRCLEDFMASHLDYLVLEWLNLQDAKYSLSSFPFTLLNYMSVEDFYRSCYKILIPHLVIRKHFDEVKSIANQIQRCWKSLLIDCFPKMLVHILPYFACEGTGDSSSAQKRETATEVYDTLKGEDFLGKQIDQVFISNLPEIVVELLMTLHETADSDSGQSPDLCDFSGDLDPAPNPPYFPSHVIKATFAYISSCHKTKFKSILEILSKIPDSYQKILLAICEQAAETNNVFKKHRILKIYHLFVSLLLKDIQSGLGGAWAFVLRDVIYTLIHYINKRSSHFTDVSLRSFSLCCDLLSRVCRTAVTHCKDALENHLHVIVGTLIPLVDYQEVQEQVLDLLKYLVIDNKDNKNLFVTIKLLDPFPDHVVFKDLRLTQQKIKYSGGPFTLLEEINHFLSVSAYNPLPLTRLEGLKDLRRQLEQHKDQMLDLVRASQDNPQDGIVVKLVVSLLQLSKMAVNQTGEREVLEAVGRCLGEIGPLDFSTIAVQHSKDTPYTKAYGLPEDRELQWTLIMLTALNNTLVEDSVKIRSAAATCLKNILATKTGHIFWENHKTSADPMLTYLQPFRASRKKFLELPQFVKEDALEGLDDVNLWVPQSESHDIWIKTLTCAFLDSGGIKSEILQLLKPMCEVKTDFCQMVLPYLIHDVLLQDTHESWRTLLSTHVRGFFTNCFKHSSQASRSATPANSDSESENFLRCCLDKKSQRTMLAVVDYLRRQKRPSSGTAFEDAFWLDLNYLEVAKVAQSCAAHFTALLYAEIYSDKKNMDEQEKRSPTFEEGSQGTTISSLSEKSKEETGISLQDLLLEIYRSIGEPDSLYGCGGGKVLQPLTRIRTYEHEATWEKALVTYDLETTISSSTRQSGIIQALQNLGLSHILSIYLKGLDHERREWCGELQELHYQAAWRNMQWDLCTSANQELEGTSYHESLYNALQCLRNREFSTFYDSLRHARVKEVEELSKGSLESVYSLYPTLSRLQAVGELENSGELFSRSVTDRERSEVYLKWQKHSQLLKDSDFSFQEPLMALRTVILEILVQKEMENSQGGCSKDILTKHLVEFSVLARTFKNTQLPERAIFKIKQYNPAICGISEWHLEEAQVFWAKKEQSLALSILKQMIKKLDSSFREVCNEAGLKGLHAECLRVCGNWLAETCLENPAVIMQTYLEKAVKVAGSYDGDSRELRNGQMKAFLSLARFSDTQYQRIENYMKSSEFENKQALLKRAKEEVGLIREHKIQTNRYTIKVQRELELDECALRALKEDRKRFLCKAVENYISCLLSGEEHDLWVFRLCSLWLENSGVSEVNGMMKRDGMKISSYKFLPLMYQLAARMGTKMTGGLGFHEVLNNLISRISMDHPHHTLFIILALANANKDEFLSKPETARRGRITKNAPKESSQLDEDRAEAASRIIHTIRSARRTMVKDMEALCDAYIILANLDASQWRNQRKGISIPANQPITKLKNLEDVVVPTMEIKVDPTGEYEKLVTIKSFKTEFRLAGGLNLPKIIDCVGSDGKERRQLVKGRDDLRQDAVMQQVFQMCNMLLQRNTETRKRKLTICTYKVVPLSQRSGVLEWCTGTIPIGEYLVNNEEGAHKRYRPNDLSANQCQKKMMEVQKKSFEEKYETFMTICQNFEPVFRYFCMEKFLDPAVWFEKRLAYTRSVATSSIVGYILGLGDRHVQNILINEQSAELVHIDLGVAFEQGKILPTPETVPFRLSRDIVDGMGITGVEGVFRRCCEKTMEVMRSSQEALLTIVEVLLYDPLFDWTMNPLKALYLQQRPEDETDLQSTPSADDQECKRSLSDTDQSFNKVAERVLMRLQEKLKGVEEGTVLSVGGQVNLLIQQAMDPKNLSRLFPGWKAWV
Method: Primary adult rat DRGN cultures were prepared as described by us previously (11). DRGN were dissociated using collagenase and cultured in supplemented Neurobasal-A (#10888022; NBA) containing B27 supplement (#17504044), L-glutamine (#25030081) and gentamicin (#15710064) (all from Invitrogen, Paisley, UK) at a plating density of 500/well in 8-well chamber slides (#C6932; Beckton Dickinson, Oxford, UK) pre-coated with 100 μg/ml poly-D-lysine (#P6407; Sigma, Poole, UK). […] Sigma) at 30 μM (11). […] Positive controls included pre-optimized fibroblast growth factor-2 (FGF-2) (#100-18C, Peprotech, London, UK; 10 ng/ml (11)). Cells were cultured for 4 days in a humidified chamber at 37° C. and 5% CO2 before being subjected to immunocytochemistry, as described below. Treatments were added in triplicate and repeated on 3 independent occasions (i.e. total n=9 wells/treatment) by an investigator masked to the treatment conditions. […] Tocris, Oxford, UK) were dissolved in DMSO (Sigma, Poole, UK) at stock concentrations of 10 mM for in vitro use. […] After a protein assay using the Bradford Assay Kit (#5000001; […] Proteins were then transferred onto PVDF membranes (#1EVH00005, Merck, Gillingham, UK), blocked in non-fat milk and incubated with rabbit anti-pATM ([…]) antibody (#13050, 1:200 dilution, Cell Signalling Technology, London, UK) overnight at 4° C. Membranes were then washed in Tris buffered saline (TBS) and incubated with appropriate mouse/rabbit HRP-labelled secondary antibody (#GENA934; 1:1000 dilution, GE Healthcare, Buckinghamshire, UK) and bands detected using an enhanced chemiluminescence kit (#RPN2108, GE Healthcare). Rabbit anti-β-actin antibody (#ZRB1312, 1:1000; Sigma) was used as a loading control for western blots. For densitometry, western blots were scanned into Adobe Photoshop (Adobe Systems, San Jose, CA, USA) keeping all scanning parameters the same between each blot and densitometrically analysed using the built-in gel plotting macros in ImageJ ([…].gov), as previously described (7).

DC injury model of SCI [5] = assay: tape sensing and removal test (sensory function) after DC injury; format: in vivo, mice; conditions: oral; for tape sensing and removal time: over 6 weeks after DC injury, versus controls
Method: (§2) Mice were subcutaneously injected with Buprenorphine and anaesthetized using 5% isoflurane and 1.8 l/min O2. After a partial laminectomy at T8, DC were crushed bilaterally using calibrated watchmaker's forceps as described by us previously (12). Animals were dosed immediately after injury and allowed to recover in their home cage. Drugs were given every 24 hours for the duration of each experiment. Tape sensing and removal and horizontal ladder crossing tests were used to detect sensory and locomotor changes after DC injury and treatment as described by us previously (7). Briefly, tape sensing and removal was tested by attaching a 15/15 mm piece of sticky tape (Kip Hochkrepp, Bocholt, Germany) onto the plantar surface of each the left paw of each mouse and recording the time taken to detect and remove the tape. For the ladder crossing test, each mouse was trained prior to DC injury to master the traversing the ladder (0.9 m long and 15.5 cm wide with randomly adjusted rungs). Animals were assessed crossing the ladder and the total number of steps and the number of left and right hind paw slips were recorded and presented as an error ratio. All of these tests were performed at 2 days after injury, then at 1 week followed by weekly tests for 6 weeks. The experimenter was masked to the treatment conditions and animals were assessed in the same order and time of day with each test performed for 3 individual trials on each occasion.

ATM [6] = biological target: T2, ATM; conditions: read-out: cell IC50; cited from earlier work
DC injury model of SCI [7] = assay: electrophysiology, compound action potentials across the lesion site after DC injury; format: in vivo, mice; conditions: oral, 6 weeks after DC injury
Method: as §1, with “experiment. […] Spike 2 software (Cambridge Electronic Design, Cambridge, UK) was used to process and analyse the traces and determine the CAP amplitude and CAP area for each condition.” for “experiment.”

primary adult rat DRGN = assay: DRGN survival and neurite outgrowth in the presence of CNS myelin extracts; format: cell-based; conditions: with CME
Method: Primary adult rat DRGN cultures were prepared as described by us previously (11). DRGN were dissociated using collagenase and cultured in supplemented Neurobasal-A (#10888022; NBA) containing B27 supplement (#17504044), L-glutamine (#25030081) and gentamicin (#15710064) (all from Invitrogen, Paisley, UK) at a plating density of 500/well in 8-well chamber slides (#C6932; Beckton Dickinson, Oxford, UK) pre-coated with 100 μg/ml poly-D-lysine (#P6407; Sigma, Poole, UK). Glial cell proliferation was inhibited in cultures using 5-fluoro-2-deoxyuridine (5-FDU; #343333; Sigma) at 30 μM (11). […] Positive controls included pre-optimized fibroblast growth factor-2 (FGF-2) (#100-18C, Peprotech, London, UK; 10 ng/ml (11)). Cells were cultured for 4 days in a humidified chamber at 37° C. and 5% CO2 before being subjected to immunocytochemistry, as described below. Treatments were added in triplicate and repeated on 3 independent occasions (i.e. total n=9 wells/treatment) by an investigator masked to the treatment conditions.
DRGN were fixed in 8-well chamber slides in situ using 4% paraformaldehyde before being subjected to immunocytochemistry with rabbit anti-βIII tubulin antibodies (#T3952; 1:200 dilution; Sigma) to detect DRGN soma and neurites, as described previously (11). Alexa-488 goat […] IgG (#A32723; 1:400 dilution; ThermoFisher, Leicester, UK) secondary antibodies were used to visualize DRGN soma and neurites using an Axioplan 2 epifluorescent microscope equipped with an AxioCam HRc and running Axiovision Software (all from Carl Zeiss, Hertfordshire, UK).
With the investigator masked to the treatment conditions, the proportion of βIII-tubulin^+ DRGN, the number of DRGN with neurites and the longest DRGN neurite length were all calculated using Axiovision Software, as described by us previously (11).

DC injury model of SCI [8] = assay: horizontal ladder crossing test (locomotor function) after DC injury; format: in vivo, mice; conditions: oral; for locomotor function, ladder crossing: over 6 weeks after DC injury
Method: as §2

γH2Ax+ foci = conditions: twice weekly injections directly into the CSF, cited from earlier work
[9] = 5 nM, compared to vehicle-treated DRGN

Molecule: CC(C)n1c(=O)n(C)c2cnc3ccc(-c4ccc(OCCCN5CCCCC5)nc4F)cc3c21 [AZD1390, 8-[2-Fluoro-6-[3-(I-piperidyl)propoxy]-3-pyridyl]-1-isopropyl-3-methyl-imidazo[4,5-c]quinolin-2-one]
- pATM (pSer 1981) levels (pATM (pSer 1981)): significant suppression
- DC axon regeneration through the lesion site (DC axons): promoted DC axon regeneration through the lesion site and into the rostral cord
- axons regenerating beyond the lesion site (DC axons; up to 1 mm beyond the lesion site, compared to vehicle-treated mice): up to 12%
- selectivity over kinases within the same family [1]: > 10,000 fold
- IC50 (ATM [2]): 0.5 to 3 nM
- tumor response and survival (brain gliomas): induced tumor regression and prolonged survival
- time bioavailable in the brain [3]: at least 8 hours
- reduction of pATM levels ([4]; 5 nM, compared to vehicle-treated (0 nM) cultures): 70%
- lowest most effective dose for reduction of pATM levels ([4]; concentrations 1-10 nM tested): 5 nM
- time for sensory function to return to baseline of sham-uninjured animals (DC injury model of SCI [5]; after injury): ≤ 4 weeks
- tape sensing and removal time (DC injury model of SCI [5]): significantly shorter time than controls
- IC50 (ATM [6]): 0.78 nM
- CAP amplitudes (DC injury model of SCI [7]): significantly improved
- CAP areas (DC injury model of SCI [7]): significantly improved
- CAP trace (DC injury model of SCI [7]): return of a significant CAP trace
- increase of DRGN survival (primary adult rat DRGN; [9]): 60%
- increase of longest neurite length (primary adult rat DRGN; [9]): 81%
- increase of percentage of DRGN with neurites (primary adult rat DRGN; [9]): 88%
- time to recover to sham-uninjured control levels, ladder crossing (DC injury model of SCI [8]): ≤ 4 weeks
- locomotor function, ladder crossing (DC injury model of SCI [8]): marked improvement

Molecule: C[C@@H]1CN(CC(=O)Nc2ccc3c(c2)Cc2cccc(-c4cc(=O)cc(N5CCOCC5)o4)c2S3)C[C@H](C)O1 [KU-60019]
- suppression of pATM levels (pATM (pSer 1981); intrathecal delivery after injury): 81%
- pATM (pSer 1981) levels (pATM (pSer 1981)): no effect
- pATM inhibition in DRGN from SCI treated animals (pATM (pSer 1981)): no pATM inhibition
- pATM inhibition in DRGN from SCI treated animals (pATM (pSer 1981); listed as KU6000-19): no effect
- DC axon regeneration through the lesion site (DC axons): not oral KU-60019 promoted DC axon regeneration
- ATM activation in vitro [4]: able to suppress ATM activation in vitro
- tape sensing and removal time (DC injury model of SCI [5]): no effect
- γH2Ax+ foci (γH2Ax+ foci; after SCI): reduced
- functional recovery after SCI (γH2Ax+ foci): promoted significant functional recovery
- locomotor function, ladder crossing (DC injury model of SCI [8]): a significant deficit remained

Molecule: FGF-2: fibroblast growth factor-2, positive control (Peprotech), 10 ng/ml
- DRGN survival and neurite outgrowth in comparison with AZD1390 (primary adult rat DRGN; FGF-2 10 ng/ml positive control, KU-60019 at concentrations of a recent study): inferior compared to AZD1390
